Here are results for 24 compounds from paper PMC10052035, “Virtual Screening, Structural Analysis, and Formation Thermodynamics of Carbamazepine Cocrystals” (Pharmaceutics, 2023).

The conditions of data set [1]: cited from earlier work.
For data set [2] the following is noted: cited from earlier work. This is another data set of the same source.
Data set [3] is described as follows: Solubility of cocrystals and their constituents in organic solvents (shake-flask, HPLC). The conditions noted are these: for solubility at 48 h: organic solvent or mixture, thermodynamic from solid; for Cp∙10^2, solubility of pure component: 293.15 K, value is C∙10^2. The protocol:
For the [CBZ + 3AcAmBA] (1:1) cocrystal, methanol was used. For [CBZ + 4AcAmBA] (1:1), all the experiments were performed in acetonitrile. An excess of the solid was placed in an Eppendorf tube, and 2 mL of solvent was added. The resulting suspension was shaken in a ThermoMixer C (Eppendorf, Hamburg, Germany) at 800 rpm for 48 h at the specified temperature. Subsequently, the saturated solution was separated using a 0.22 μm PTEF filter, diluted, and analyzed using HPLC. The solid phases after the experiment were collected and characterized by PXRD. Each experiment was repeated three times.
The HPLC was performed on an LC-20 AD Shimadzu Prominence model (Shimadzu, Kyoto, Japan) equipped with a PDA detector and a Luna C-18 column (150 mm × 4.6 mm i.d., 5 μm particle size, and 100 Å pore size). The column temperature was set to 40 °C. To achieve the proper separation of the cocrystal components, different ratios of the mobile phase, consisting of acetonitrile and a 0.1% aqueous solution of trifluoroacetic acid (35:65 v/v), were used. The flow rate was 1.0 mL·min^−1, and the injection volume was 20 μL. The UV detection of carbamazepine, 2-acetamidobenzoic acid, 3-acetamidobenzoic acid, and 4-acetamidobenzoic acid was carried out at the wavelengths of 285 nm, 249 nm, 220 nm, and 266 nm, respectively.

SMILES strings stand for the structures. ≈ marks a conversion by molar mass, not a printed value. Like-named read-outs stand apart in the source and are kept apart here.

Turning to `NC(=O)c1cnccn1.Nc1ccc(C(=O)O)cc1`, in data set [1] (298 K, ref [14]), the TΔformS was -8.01 ± 0.765 kcal/mol, the ΔformG was -1.46 ± 0.072 kcal/mol and the ΔformH was -9.46 ± 0.693 kcal/mol.

Take `NC(=O)c1ccccc1N.O=C1CN(N=Cc2ccc([N+](=O)[O-])o2)C(=O)N1`: in data set [1] (298 K, ref [19]), the TΔformS is 0.311 ± 0.263 kcal/mol, the ΔformG is -1.08 ± 0.12 kcal/mol and the ΔformH was -0.789 ± 0.19 kcal/mol. Moreover, the TΔformS entry in data set [1] (298 K, ref [19], listed as 13) is recorded as “≈ 0 kJ·mol-1”.

Regarding `NC(=O)N1c2ccccc2C=Cc2ccccc21` [CBZ, carbamazepine], the “log(S0), intrinsic solubility” value is recorded as -1.36 mol⋅L-1 in data set [2] (2-propanol, ref [6]); -1.3 mol⋅L-1 in data set [2] (2-propanol, ref [10]); -1.27 mol⋅L-1 in data set [2] (Acetone, ref [6]); -0.97 mol⋅L-1 in data set [2] (Ethanol, ref [6]); -0.85 mol⋅L-1 in data set [2] (Ethanol, ref [10]); -1.32 mol⋅L-1 in data set [2] (Ethyl acetate, ref [6]). In addition, the “log(S0), intrinsic solubility” value in data set [2] (Ethyl acetate, ref [10]) is listed as -1.31 mol⋅L-1; in data set [2] (Methanol, ref [6]), -0.49 mol⋅L-1. Also, the solubility (in general, the dissolved amount per volume that the medium holds) at 48 h is 142 ± 3 mM (≈ 33.6 mg/mL) in data set [3] (acetonitrile, 20 °C); 162 ± 4 mM (≈ 38.3 mg/mL) in data set [3] (acetonitrile, 25 °C); 191 ± 4 mM (≈ 45.1 mg/mL) in data set [3] (acetonitrile, 30 °C); 222 ± 3 mM (≈ 52.5 mg/mL) in data set [3] (acetonitrile, 35 °C); 250 ± 4 mM (≈ 59.1 mg/mL) in data set [3] (acetonitrile, 40 °C); 220 ± 2 mM (≈ 52 mg/mL) in data set [3] (methanol, 20 °C). Further, the solubility at 48 h is 248 ± 2 mM (≈ 58.6 mg/mL) in data set [3] (methanol, 25 °C); 285 ± 2 mM (≈ 67.3 mg/mL) in data set [3] (methanol, 30 °C); 323 ± 3 mM (≈ 76.3 mg/mL) in data set [3] (methanol, 35 °C); 356 ± 1 mM (≈ 84.1 mg/mL) in data set [3] (methanol, 40 °C). Besides, the results for the “Cp∙10^2, solubility of pure component” value in data set [3] (acetonitrile) and in data set [3] (methanol) were 14.2±0.3 mol/l and 22.0±0.2 mol/l, respectively.

In the case of `Cc1cc(O)c2c(c1)C(=O)c1cc(O)cc(O)c1C2=O` [Emodin], the “log(S0), intrinsic solubility” value in data set [2] (2-propanol, ref [6]) was -1.68 mol⋅L-1; in data set [2] (Acetone, ref [6]), -1.29 mol⋅L-1; in data set [2] (Ethanol, ref [6]) it was -1.74 mol⋅L-1; in data set [2] (Ethyl acetate, ref [6]), -1.43 mol⋅L-1.

As to `O=C(O)CCCC(=O)O` [Glutaric acid], the “log(S0), intrinsic solubility” value in data set [2] (2-propanol, ref [10]) was 0.56 mol⋅L-1; in data set [2] (Ethanol, ref [10]) it was 0.45 mol⋅L-1; in data set [2] (Ethyl acetate, ref [10]), 0 mol⋅L-1.

Take `NC(=O)c1cccnc1` [Nicotinamide]: the “log(S0), intrinsic solubility” value in data set [2] (2-propanol, ref [10]) is listed as -0.2 mol⋅L-1; in data set [2] (Ethanol, ref [10]), 0.04 mol⋅L-1; in data set [2] (Ethyl acetate, ref [10]), -0.96 mol⋅L-1.

Consider `COc1ccc(C(C)=O)c(O)c1` [Paeonol], for which the “log(S0), intrinsic solubility” value was -0.12 mol⋅L-1 in data set [2] (2-propanol, ref [6]); 0.08 mol⋅L-1 in data set [2] (Ethanol, ref [6]); 0.22 mol⋅L-1 in data set [2] (Methanol, ref [6]).

On to `CC(O)(CS(=O)(=O)c1ccc(F)cc1)C(=O)Nc1ccc(C#N)c(C(F)(F)F)c1.NC(=O)c1ccccc1` (stereo not shown) [[Bicalutamide + Benzamide] (1:1)], for which, in data set [1] (298 K, ref [11]), the TΔformS was -3.87 ± 0.263 kcal/mol, the ΔformG is -0.813 ± 0.072 kcal/mol and the ΔformH is -4.68 ± 0.19 kcal/mol.

In the case of `CC(O)(CS(=O)(=O)c1ccc(F)cc1)C(=O)Nc1ccc(C#N)c(C(F)(F)F)c1.NC(=O)c1ccccc1O` (stereo not shown) [[Bicalutamide + Salicylamide] (1:1)], in data set [1] (298 K, ref [11]), the TΔformS was -2.2 ± 0.19 kcal/mol, the ΔformG is -0.526 ± 0.072 kcal/mol and the ΔformH was -2.72 ± 0.12 kcal/mol.

Take `NC(=O)N1c2ccccc2C=Cc2ccccc21.NC(=O)c1ccc(O)cc1` [[CBZ + 4-Hydroxybenzamide] (1:1)]: in data set [1] (298 K, ref [22]), the TΔformS was -1.36 ± 0.12 kcal/mol, the ΔformG is -1.6 ± 0.12 kcal/mol and the ΔformH is -2.96 ± 0.22 kcal/mol.

`NC(=O)N1c2ccccc2C=Cc2ccccc21.NC(=O)c1ccccc1` [[CBZ + Benzamide] (1:1)]: in data set [1] (298 K, ref [22]), the TΔformS was 7.29 ± 0.693 kcal/mol, the ΔformG was -1.15 ± 0.072 kcal/mol and the ΔformH was 6.14 ± 0.454 kcal/mol.

For `NC(=O)N1c2ccccc2C=Cc2ccccc21.O=C1NS(=O)(=O)c2ccccc21` [[CBZ + Saccharin] (1:1)], in data set [1] (306 K, ref [15]), the TΔformS is -0.311 kcal/mol, the ΔformG was -1.1 kcal/mol and the ΔformH was -1.41 ± 0.22 kcal/mol.

Take `NC(=O)N1c2ccccc2C=Cc2ccccc21.NC(=O)c1ccncc1` [[CBZ + isonicotinamide] (1:1)]: in data set [1] (298 K, ref [22]), the TΔformS is 5.26 ± 0.598 kcal/mol, the ΔformG was -0.502 ± 0.024 kcal/mol and the ΔformH is 4.76 ± 0.454 kcal/mol.

`Cc1ccc(-c2cc(C(F)(F)F)nn2-c2ccc(S(N)(=O)=O)cc2)cc1.NC(=O)c1cccnc1` [[Celecoxib + Nicotinamide] (1:1)]: in data set [1] (298 K, ref [20]), the TΔformS was 1.65 ± 0.478 kcal/mol, the ΔformG is -0.0837 ± 0.012 kcal/mol and the ΔformH was 1.55 ± 0.359 kcal/mol.

Turning to `NCC(=O)O.NCC(=O)O.O=C(O)/C=C/C(=O)O` [[Glycine + Fu maric acid] (2:1)], in data set [1] (298 K, ref [17]), the TΔformS is -0.335 ± 0.14 kcal/mol, the ΔformG is -1.05 ± 0.072 kcal/mol and the ΔformH is -1.39 ± 0.12 kcal/mol.

With `NCC(=O)O.O=C(O)/C=C\C(=O)O` [[Glycine + Maleic acid] (1:1)], in data set [1] (298 K, ref [17]), the TΔformS was -1.36 ± 0.239 kcal/mol, the ΔformG was -1.29 ± 0.096 kcal/mol and the ΔformH is -2.65 ± 0.22 kcal/mol.

As for `NC(=O)c1ccncc1.O=C1CN(N=Cc2ccc([N+](=O)[O-])o2)C(=O)N1` [[Nitrofurantoin + Isonicotinamide] (1:1)], in data set [1] (298 K, ref [19]), the TΔformS is 1.43 ± 0.17 kcal/mol, the ΔformG is -1.12 ± 0.096 kcal/mol and the ΔformH was 0.311 ± 0.14 kcal/mol.

Turning to `NC(=O)c1ccccn1.O=C1CN(N=Cc2ccc([N+](=O)[O-])o2)C(=O)N1` [[Nitrofurantoin + Picolinamide] (1:1)], in data set [1] (298 K, ref [19]), the TΔformS is 0.14 ± 0.19 kcal/mol, the ΔformG is -1.17 ± 0.12 kcal/mol and the ΔformH is -1.05 ± 0.17 kcal/mol. For the same compound, the TΔformS result in data set [1] (298 K, ref [19], listed as 12) is reported as “≈ 0 kJ·mol-1”.

For `NC(=O)c1ccccc1O.O=C1CN(N=Cc2ccc([N+](=O)[O-])o2)C(=O)N1` [[Nitrofurantoin + Salicylamide] (1:1)], in data set [1] (298 K, ref [19]), the TΔformS is 0.072 ± 0.17 kcal/mol, the ΔformG is -0.14 ± 0.096 kcal/mol and the ΔformH was -0.072 ± 0.14 kcal/mol. Moreover, the TΔformS entry in data set [1] (298 K, ref [19], listed as 14) was “≈ 0 kJ·mol-1”.

Turning to `O=C(NN=Cc1ccccc1O)c1ccncc1.O=C1NS(=O)(=O)c2ccccc21` [[Salinazid + Saccharin] (1:1)], in data set [1] (298 K, ref [13]), the TΔformS is -2.65 ± 0.382 kcal/mol, the ΔformG is -1.74 ± 0.14 kcal/mol and the ΔformH is -4.4 ± 0.239 kcal/mol.

As to `CNC(=O)c1cc(Oc2ccc(NC(=O)Nc3ccc(Cl)c(C(F)(F)F)c3)cc2)ccn1.O=c1[nH]cc(F)c(=O)[nH]1` [[Sorafenib + 5-fluorouracil] (1:1)], in data set [1] (303 K, ref [18]), the TΔformS is 0.0048 ± 0.024 kcal/mol, the ΔformG is -1.14 ± 0.022 kcal/mol and the ΔformH was -1.14 ± 0.017 kcal/mol. Moreover, the TΔformS result in data set [1] (303 K, ref [18], listed as 11) is recorded as “≈ 0 kJ·mol-1”.

For the compound `Cc1cc(C)nc(NS(=O)(=O)c2ccc(N)cc2)n1.O=C(O)c1ccccc1O` [[Sulfamethazine + salicylic acid] (1:1)], in data set [1] (293 K, ref [21]), the TΔformS is 7.1 kcal/mol, the ΔformG was -1.7 kcal/mol and the ΔformH was 5.52 kcal/mol.

Turning to `COc1cc(C=NNC(=O)c2ccncc2)ccc1O.O=C1NS(=O)(=O)c2ccccc21` [[Vanillin isoniazid + Saccharin] (1:1)], in data set [1] (298 K, ref [13]), the TΔformS is -1.05 ± 0.454 kcal/mol, the ΔformG was -2.17 ± 0.19 kcal/mol and the ΔformH was -3.23 ± 0.263 kcal/mol.

With `CC(O)Cc1nsc(Nc2cccc(Cl)c2)n1.COc1cc(C(=O)O)ccc1O` (stereo not shown) [[XIa+Vanillic acid] (1:1)], in data set [1] (298 K, ref [12]), the TΔformS was -1.24 ± 0.311 kcal/mol, the ΔformG was -1.27 ± 0.096 kcal/mol and the ΔformH was -2.51 ± 0.22 kcal/mol.
